The source of these data is PMC9030254, “Target Hopping from Protein Kinases to PXR: Identification of Small-Molecule Protein Kinase Inhibitors as Selective Modulators of Pregnane X Receptor from TüKIC Library” (Cells, 2022).

Common to all, as to assay: Kinase profiling
What all share (format): biochemical

One experiment addresses T1, MEK1 (Homo sapiens, UniProt Q02750).
T1 construct: purchased ProQinase (Freiburg, Germany)
Here is the method: (§1) The analysis was performed by ProQinase (Freiburg, Germany).

The next experiment deals with T2, DMPK (Homo sapiens, UniProt Q09013).
T2 construct: purchased ProQinase (Freiburg, Germany)
T2 sequence (Q09013 1-629): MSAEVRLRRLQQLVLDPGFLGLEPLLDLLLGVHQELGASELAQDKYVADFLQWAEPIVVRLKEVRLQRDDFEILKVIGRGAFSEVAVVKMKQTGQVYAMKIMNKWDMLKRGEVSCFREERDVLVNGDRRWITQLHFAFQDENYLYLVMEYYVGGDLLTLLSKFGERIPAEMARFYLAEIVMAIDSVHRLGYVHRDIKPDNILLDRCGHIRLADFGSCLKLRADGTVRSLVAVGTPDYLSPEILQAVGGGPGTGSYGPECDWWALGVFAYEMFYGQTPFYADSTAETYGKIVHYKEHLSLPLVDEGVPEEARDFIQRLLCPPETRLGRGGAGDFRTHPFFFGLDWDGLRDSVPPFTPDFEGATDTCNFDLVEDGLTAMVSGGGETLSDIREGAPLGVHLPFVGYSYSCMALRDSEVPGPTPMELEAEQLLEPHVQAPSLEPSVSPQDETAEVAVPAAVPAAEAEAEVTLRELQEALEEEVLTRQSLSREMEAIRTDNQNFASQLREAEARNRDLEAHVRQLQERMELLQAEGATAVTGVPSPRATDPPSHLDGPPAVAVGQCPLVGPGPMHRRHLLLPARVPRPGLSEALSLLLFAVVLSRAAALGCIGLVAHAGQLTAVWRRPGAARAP
The protocol:
as §1

A further experiment has as its target T3, MYLK3 (Homo sapiens, UniProt Q32MK0).
T3 construct: purchased ProQinase (Freiburg, Germany)
T3 sequence (Q32MK0 1-819): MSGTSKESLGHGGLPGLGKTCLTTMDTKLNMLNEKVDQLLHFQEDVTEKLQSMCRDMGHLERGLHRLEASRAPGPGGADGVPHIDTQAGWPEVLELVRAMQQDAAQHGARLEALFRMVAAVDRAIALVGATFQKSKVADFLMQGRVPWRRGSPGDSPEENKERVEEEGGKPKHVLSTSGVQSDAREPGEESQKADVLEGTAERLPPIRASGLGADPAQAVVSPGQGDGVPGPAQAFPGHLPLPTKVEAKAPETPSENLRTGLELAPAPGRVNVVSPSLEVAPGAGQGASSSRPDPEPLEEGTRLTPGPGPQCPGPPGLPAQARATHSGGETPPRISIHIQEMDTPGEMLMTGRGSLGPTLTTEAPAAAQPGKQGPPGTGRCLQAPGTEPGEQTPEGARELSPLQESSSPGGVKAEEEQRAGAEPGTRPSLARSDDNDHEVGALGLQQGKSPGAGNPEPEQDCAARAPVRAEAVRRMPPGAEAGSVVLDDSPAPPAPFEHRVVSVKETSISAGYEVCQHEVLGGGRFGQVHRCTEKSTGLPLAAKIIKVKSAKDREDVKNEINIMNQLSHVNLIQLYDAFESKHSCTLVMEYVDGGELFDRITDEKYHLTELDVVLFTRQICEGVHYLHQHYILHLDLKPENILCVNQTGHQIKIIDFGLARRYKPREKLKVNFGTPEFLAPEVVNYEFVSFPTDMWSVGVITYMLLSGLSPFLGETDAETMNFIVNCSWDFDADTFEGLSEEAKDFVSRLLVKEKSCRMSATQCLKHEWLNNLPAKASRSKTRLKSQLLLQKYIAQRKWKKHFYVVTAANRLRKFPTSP
Here is the method:
as §1

A further experiment addresses T4, DCAMKL2 (Homo sapiens, UniProt Q8N568).
T4 construct: purchased ProQinase (Freiburg, Germany)
T4 sequence (Q8N568 1-766): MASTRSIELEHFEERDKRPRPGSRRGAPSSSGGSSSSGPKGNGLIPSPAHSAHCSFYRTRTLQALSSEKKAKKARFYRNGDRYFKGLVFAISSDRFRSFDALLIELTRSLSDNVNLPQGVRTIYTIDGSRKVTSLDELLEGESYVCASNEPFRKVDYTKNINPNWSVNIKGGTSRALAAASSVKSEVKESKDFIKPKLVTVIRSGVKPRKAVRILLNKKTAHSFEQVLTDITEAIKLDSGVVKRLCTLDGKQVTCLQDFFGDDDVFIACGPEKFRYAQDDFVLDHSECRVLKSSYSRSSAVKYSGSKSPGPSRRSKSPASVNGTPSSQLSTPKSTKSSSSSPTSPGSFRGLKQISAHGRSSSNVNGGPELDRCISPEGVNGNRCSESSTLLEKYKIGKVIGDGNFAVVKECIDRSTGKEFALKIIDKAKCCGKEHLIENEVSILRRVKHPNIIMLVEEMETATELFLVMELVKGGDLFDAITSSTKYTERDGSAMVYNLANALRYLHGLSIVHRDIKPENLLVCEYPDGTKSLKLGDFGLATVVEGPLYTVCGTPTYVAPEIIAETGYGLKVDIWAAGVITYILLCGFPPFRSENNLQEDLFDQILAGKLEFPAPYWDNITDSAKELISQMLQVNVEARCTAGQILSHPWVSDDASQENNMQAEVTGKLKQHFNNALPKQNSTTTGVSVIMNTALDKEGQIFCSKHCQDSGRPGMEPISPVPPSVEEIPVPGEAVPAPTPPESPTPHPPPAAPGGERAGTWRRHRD
Here is the method: as §1

For the next experiment, the target named is T5, PKCtheta (Homo sapiens, UniProt Q04759).
T5 construct: purchased ProQinase (Freiburg, Germany)
T5 sequence (Q04759 whole entry): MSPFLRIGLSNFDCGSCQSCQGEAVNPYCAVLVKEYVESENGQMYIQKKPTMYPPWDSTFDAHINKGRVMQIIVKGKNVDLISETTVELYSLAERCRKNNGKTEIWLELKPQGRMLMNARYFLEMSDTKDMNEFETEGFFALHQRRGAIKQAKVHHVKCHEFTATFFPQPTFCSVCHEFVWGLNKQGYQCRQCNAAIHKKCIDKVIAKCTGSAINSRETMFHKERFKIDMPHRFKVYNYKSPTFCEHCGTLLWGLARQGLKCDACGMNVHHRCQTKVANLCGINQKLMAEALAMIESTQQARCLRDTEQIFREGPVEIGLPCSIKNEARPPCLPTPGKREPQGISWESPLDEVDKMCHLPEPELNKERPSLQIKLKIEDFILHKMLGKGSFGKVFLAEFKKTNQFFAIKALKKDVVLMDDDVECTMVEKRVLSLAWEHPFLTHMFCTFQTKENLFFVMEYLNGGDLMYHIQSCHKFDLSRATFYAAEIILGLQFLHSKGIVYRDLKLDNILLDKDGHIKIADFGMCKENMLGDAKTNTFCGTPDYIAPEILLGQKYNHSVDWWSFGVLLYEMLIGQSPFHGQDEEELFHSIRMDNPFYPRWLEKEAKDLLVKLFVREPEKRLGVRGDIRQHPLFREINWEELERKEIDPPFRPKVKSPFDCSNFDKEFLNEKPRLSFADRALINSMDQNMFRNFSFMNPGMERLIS
The protocol: as §1

A further experiment has as its target T6, ERBB2 (Homo sapiens, UniProt P04626).
T6 construct: purchased ProQinase (Freiburg, Germany)
The protocol:
as §1

T6 sequence (P04626 23-1255): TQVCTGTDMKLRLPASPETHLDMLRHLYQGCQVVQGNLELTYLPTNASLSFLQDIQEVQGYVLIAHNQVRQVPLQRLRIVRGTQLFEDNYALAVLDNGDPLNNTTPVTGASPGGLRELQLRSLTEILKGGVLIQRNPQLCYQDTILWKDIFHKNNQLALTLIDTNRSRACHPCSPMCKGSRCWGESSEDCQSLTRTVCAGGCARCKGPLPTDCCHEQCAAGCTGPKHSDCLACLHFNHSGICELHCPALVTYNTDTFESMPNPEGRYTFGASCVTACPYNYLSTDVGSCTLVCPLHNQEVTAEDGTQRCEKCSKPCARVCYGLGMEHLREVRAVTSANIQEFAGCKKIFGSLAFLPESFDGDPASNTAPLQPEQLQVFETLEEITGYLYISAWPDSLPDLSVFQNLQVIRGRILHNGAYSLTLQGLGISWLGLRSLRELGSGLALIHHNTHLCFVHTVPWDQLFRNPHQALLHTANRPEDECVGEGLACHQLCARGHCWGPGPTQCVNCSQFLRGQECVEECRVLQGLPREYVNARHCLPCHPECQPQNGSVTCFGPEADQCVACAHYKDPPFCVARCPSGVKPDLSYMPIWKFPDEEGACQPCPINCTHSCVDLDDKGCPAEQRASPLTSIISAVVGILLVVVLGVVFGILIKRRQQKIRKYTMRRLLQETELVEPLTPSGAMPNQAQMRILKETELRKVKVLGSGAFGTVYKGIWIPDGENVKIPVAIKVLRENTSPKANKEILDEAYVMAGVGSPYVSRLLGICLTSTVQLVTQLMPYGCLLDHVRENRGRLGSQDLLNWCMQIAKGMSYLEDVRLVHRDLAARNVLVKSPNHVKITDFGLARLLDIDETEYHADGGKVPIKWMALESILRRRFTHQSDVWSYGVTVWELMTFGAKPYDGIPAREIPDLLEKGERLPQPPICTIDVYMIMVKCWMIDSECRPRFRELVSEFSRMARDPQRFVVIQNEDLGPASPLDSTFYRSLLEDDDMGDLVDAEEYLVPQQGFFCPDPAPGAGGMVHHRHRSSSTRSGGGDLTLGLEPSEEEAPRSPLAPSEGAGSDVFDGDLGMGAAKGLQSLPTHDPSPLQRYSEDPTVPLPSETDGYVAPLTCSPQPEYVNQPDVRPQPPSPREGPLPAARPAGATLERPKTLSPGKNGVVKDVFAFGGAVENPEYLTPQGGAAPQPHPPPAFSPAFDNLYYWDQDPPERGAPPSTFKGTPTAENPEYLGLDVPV
T1 sequence (Q02750 whole entry): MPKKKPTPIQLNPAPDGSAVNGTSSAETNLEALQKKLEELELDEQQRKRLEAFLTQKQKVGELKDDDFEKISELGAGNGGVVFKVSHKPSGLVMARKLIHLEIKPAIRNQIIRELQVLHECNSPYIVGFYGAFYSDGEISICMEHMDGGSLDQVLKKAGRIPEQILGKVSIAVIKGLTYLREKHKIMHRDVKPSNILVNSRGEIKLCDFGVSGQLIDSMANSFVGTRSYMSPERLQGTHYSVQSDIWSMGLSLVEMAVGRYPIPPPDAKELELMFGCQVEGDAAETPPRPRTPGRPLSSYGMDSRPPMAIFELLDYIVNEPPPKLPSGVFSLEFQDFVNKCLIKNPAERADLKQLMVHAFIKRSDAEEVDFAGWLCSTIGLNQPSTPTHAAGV

As to `O=C(Nc1ccc(F)c(Nc2ccc3c(c2)CCCCC3=O)c1)c1cccc(F)c1` [Compound 109], the Residual activity was 109 % of control on MEK1 (1.0E-05 M); 109 % of control at MEK1 (1.0E-06 M); 94 % of control on DMPK (1.0E-05 M); 99 % of control on DMPK (1.0E-06 M); 80 % of control on MYLK3 (1.0E-05 M); 103 % of control at MYLK3 (1.0E-06 M). The Residual activity on DCAMKL2 (1.0E-05 M) is 103 % of control; at DCAMKL2 (1.0E-06 M) it was 100 % of control; on PKCtheta (1.0E-05 M), 84 % of control; at PKCtheta (1.0E-06 M), 106 % of control; on ERBB2 (1.0E-05 M) it was 86 % of control; on ERBB2 (1.0E-06 M), 99 % of control.
For the molecule `O=C(Cc1ccccc1)Nc1ccc(F)c(Nc2ccc3c(c2)CCCCC3=O)c1` [Compound 100], the Residual activity at MEK1 (1.0E-05 M) is 114 % of control; at MEK1 (1.0E-06 M) it was 112 % of control; at DMPK (1.0E-05 M), 100 % of control; at DMPK (1.0E-06 M), 101 % of control; on MYLK3 (1.0E-05 M), 70 % of control; at MYLK3 (1.0E-06 M), 97 % of control. In addition, the Residual activity is given as 89 % of control at DCAMKL2 (1.0E-05 M); 101 % of control at DCAMKL2 (1.0E-06 M); 82 % of control on PKCtheta (1.0E-05 M); 104 % of control at PKCtheta (1.0E-06 M); 79 % of control at ERBB2 (1.0E-05 M); 96 % of control on ERBB2 (1.0E-06 M).
